Experimental findings from patent US9820954B2, “Quantitative peri-orbital application of ophthalmology drugs” (JENIVISION INC., priority 2015, dated 2017) are described below.

Values joined by “and” are separate entries in the source; they are usually repeats but may differ in a detail not shown here. Equal entries are not always repeated.

The test system of series [1] is patient. The series is described as follows: Periorbital application for ocular pain/inflammation after cataract surgery (patient example). The conditions noted are these: Example IX: 0.1% w/v solution (formula 5, table 1) once a day for five days, periorbital skin of both eyes. The series is classed as in vivo, human. An excerpt:
A person is suffering from ocular/pain inflammation after cataract surgery.

In series [2] the test system is Cynomolgus monkeys. The series is described as follows: Ocular surface hyperemia assessment (conjunctival congestion) in Cynomolgus monkeys. The series is classed as in vivo, Cynomolgus monkey. More on the design: key to Conjunctival Congestion, hyperemia score: 0: Normal Appearance; 0.5: Very Slight Redness or Dilation of Conjunctival Vessels; 1: More Obvious Redness or Dilation of Conjunctival Vessels; 2: Whole Conjunctiva Exhibiting Pronounced Red Coloration. Visual Clarification of Individual Conjunctival Vessels Difficult.; 3: Whole Conjunctiva Exhibiting Pronounced Red Coloration. Visual Clarification of Individual Iridial Vessels Impossible. Accompany Conjunctival Edema. The conditions noted are these: for Conjunctival Congestion, hyperemia score: left eyes, one value per animal. On the procedure:
(§1) Day 2 Intraocular pressure was measured in both eyes of the 6 selected animals. Before dosing the monkeys, the delivery of vehicle (Polyethylene glycol 400) and the compound (3-[(3′-fluoro-4-fluorobiphenyl-3-carbonyl) amino] phenoxyacetic acid isopropyl ester from the roller-ball applicator bottle was checked by rolling it along a solid surface (e.g. glass or plastic) until the liquid flowed freely from the roller-ball. The formulation of (3-[(3′-fluoro-4-fluorobiphenyl-3-carbonyl) amino] phenoxyacetic acid isopropyl ester was applied immediately afterwards by rolling the roller-ball slowly around the skin surrounding the left eye socket of each monkey. The roller-ball was rolled around this area 5 times for each monkey. The same drug application procedure was performed for the vehicle (Polyethylene glycol 400) to the right eye socket of each monkey. Intraocular pressure was measured in both eyes at 3 hours post-drug and vehicle application and again at 5 hours post-drug and vehicle application. The conjunctivae of both eyes were checked for redness at the end of the daily experimental period.
(§2) Day 8; Intraocular pressure was measured in both eyes and the conjunctivae were checked for redness/hyperemia.
(§3) Day 15; Intraocular pressure in was measured in both eyes and the conjunctivae were checked for redness/hyperemia.

The test system of series [3] is Cynomolgus monkeys. The series is described as follows: Intraocular pressure after periorbital roller-ball application in Cynomolgus monkeys. The series is classed as in vivo, Cynomolgus monkey. Set-up: Ocular Pressure (Left Eye), Mean: unit not given beside the values. The settings on record: for Ocular Pressure (Left Eye), Mean: treated left eye, n=6. The procedure: Day 1; 8 Cynomolgus monkeys, which are the favored animal model for glaucoma studies, were assigned to the study. Intraocular pressure was measured in both eyes. The 6 animals with the highest intraocular pressure were selected for study.
as §1
Day 3; Repeat the operation of Day 2.
Day 4; Repeat the operation of Day 2.
Day 5; Repeat the operation of Day 2.
Days 6 and 7, no drug administered.
as §2, §3
This is very unusual as most IOP lowering drugs are administered daily in order to continuously lower IOP.

In series [4] the test system is patient. The series is described as follows: Periorbital application in a patient with bacterial conjunctivitis (patient example). Type of series: in vivo, human. The conditions noted are these: Example VIII: 0.3% w/w cream (Composition 3, Table II), periorbital skin of the right eye daily. An excerpt:
A pediatric patient suffers from bacterial conjunctivitis in their right eye.

In the case of `C[C@]12C=CC(=O)C=C1CC[C@@H]1[C@@H]2[C@@H](O)C[C@@]2(C)[C@H]1CC[C@]2(O)C(=O)CO` [prednisolone], the “ocular pain and inflammation after cataract surgery” value in the series on patient [1] is “reduces the pain and inflammation”.

Take `CC(C)OC(=O)COc1cccc(NC(=O)c2cc(-c3cccc(F)c3)ccc2F)c1` [3-[(3′-fluoro-4-fluorobiphenyl-3-carbonyl)amino] phenoxyacetic acid isopropyl ester]: the “Conjunctival Congestion, hyperemia score” value in the series with Cynomolgus monkeys [2] (150407 (12:00) (Day 2, 3 hr post)) amounted to 0; with Cynomolgus monkeys [2] (150407 (14:00) (Day 2, 5 hr post)), 0; in the series on Cynomolgus monkeys [2] (150408 (12:00) (Day 3, 3 hr post)), 0; in the series on Cynomolgus monkeys [2] (150408 (14:00) (Day 3, 5 hr post)), 0; in the series with Cynomolgus monkeys [2] (150409 (12:00) (Day 4, 3 hr post)) it was 0; in the series with Cynomolgus monkeys [2] (150409 (14:00) (Day 4, 5 hr post)), 0. Moreover, the “Conjunctival Congestion, hyperemia score” value in the series with Cynomolgus monkeys [2] (150410 (12:00) (Day 5, 3 hr post)) is 0; with Cynomolgus monkeys [2] (150410 (14:00) (Day 5, 5 hr post)) it was 0; with Cynomolgus monkeys [2] (150413 (8:00) (Day 8)), 0.6 and 0 (4×) and 0.5; in the series on Cynomolgus monkeys [2] (150420 (8:00) (Day 15)) it was 0. Further, in the series with Cynomolgus monkeys [2] (Cynomolgus monkeys, exception: very slight redness on Day 7 in two monkeys), the “surface hyperemia (summary of Table IV)” value is recorded as “almost no surface hyperemia”. In addition, the “reductions in intraocular pressure (Table III and FIG. 2)” value with Cynomolgus monkeys [3] (Cynomolgus monkeys, periorbital application, versus normal baseline) is “Statistically significant reductions”. Also, the “Ocular Pressure (Left Eye), Mean” value stood at 18.0 in the series on Cynomolgus monkeys [3] (Day 2-3 hr post, in Polyethylene glycol 400, dosed Days 2-5, baseline Day 1 17.8 / 18.3); 17.8 in the series with Cynomolgus monkeys [3] (Day 2-5 hr post, baseline Day 1 17.8 / 18.3); 12.2 in the series with Cynomolgus monkeys [3] (Day 3-3 hr post); 12.3 in the series with Cynomolgus monkeys [3] (Day 3-5 hr post); 10.9 with Cynomolgus monkeys [3] (Day 4-3 hr post); 10.6 with Cynomolgus monkeys [3] (Day 4-5 hr post). In addition, the “Ocular Pressure (Left Eye), Mean” value with Cynomolgus monkeys [3] (Day 5-3 hr post) was 8.4; in the series on Cynomolgus monkeys [3] (Day 5-5 hr post), 9.1; with Cynomolgus monkeys [3] (Day 8-8:00am, no drug after Day 5), 8.5; with Cynomolgus monkeys [3] (Day 15-8:00, no drug after Day 5), 17.4. Besides, the “IOP lowering (FIG. 2)” value in the series with Cynomolgus monkeys [3] (after five doses) is reported as “long term IOP lowering”. For the same molecule, in the series with Cynomolgus monkeys [3] (periorbital skin, single administration and/or after a series of single administrations), the “duration of IOP lowering” value is on record as 7 to 14 days.

Consider `O=C(O)c1cn(C2CC2)c2cc(N3CCNCC3)c(F)cc2c1=O` [ciprofloxacin], for which the bacterial conjunctivitis entry in the series on patient [4] is reported as “bacterial infection disappears”.
